The values below come from US20070249620A1, “Urea Derivative” (priority 2004, published 2007).

Consider `CCOc1ccc(F)cc1NC(=O)Nc1ccc(N2CCN(C(=O)OC(C)(C)C)CC2)cc1` [Example 42, 4-{4-[3-(2-ethoxy-5-fluoro-phenyl)-ureido]-phenyl}-piperazine-1-carboxylic acid tert-butyl ester], for which the melting point was in the range of 168 to 169 °C.

Compound `CCOc1ccc(Cl)cc1NC(=O)Nc1ccc(N2CCN(C(=O)OC(C)(C)C)CC2)cc1` [Example 43, 4-{4-[3-(5-chloro-2-ethoxy-phenyl)-ureido]-phenyl}-piperazine-1-carboxylic acid tert-butyl ester] yielded a melting point of 165 to 167 °C. The compound `COc1ccc(F)cc1NC(=O)Nc1ccc(N2CCN(C(=O)OC(C)(C)C)CC2)cc1` [Example 44, 4-{4-[3-(5-fluoro-2-methoxy-phenyl)-ureido]-phenyl}-piperazine-1-carboxylic acid tert-butyl ester] displayed a melting point of 200 to 202 °C. The compound `COc1ccc(F)cc1NC(=O)Nc1ccc(N2CCN(C(=O)OC(C)(C)C)CC2)nc1` [Example 45, 4-{5-[3-(5-fluoro-2-methoxy-phenyl)-ureido]-pyridin-2-yl}-piperazine-1-carboxylic acid tert-butyl ester] had a melting point of 200 to 201 °C.

In turn, `COc1ccc(C)cc1NC(=O)Nc1ccc(N2CCN(C(=O)Oc3ccccc3)CC2)cc1` [Example 47, 4-{4-[3-(2-methoxy-5-methyl-phenyl)-ureido]-phenyl}-piperazine-1-carboxylic acid phenyl ester] yielded a melting point of 179 °C. For `COc1ccc(C)cc1NC(=O)Nc1ccc(N2CCN(C(=O)C3CCCCC3)CC2)cc1` [Example 48, 1-[4-(4-cyclohexanecarbonyl-piperazin-1-yl)-phenyl]-3-(2-methoxy-5-methyl-phenyl)-urea] the value was 222 °C. In the case of `COc1ccc(C)cc1NC(=O)Nc1ccc(N2CCN(C(=O)Nc3ccccc3)CC2)cc1` [Example 49, 4-{4-[3-(2-methoxy-5-methyl-phenyl)-ureido]-phenyl}-piperazine-1-carboxylic acid phenylamide] it was 221 °C; in that of `COc1ccc(C)cc1NC(=O)Nc1ccc(N2CCN(C(=O)NCc3ccccc3)CC2)cc1` [Example 50, 4-{4-[3-(2-methoxy-5-methyl-phenyl)-ureido]-phenyl}-piperazine-1-carboxylic acid benzylamide], 224 °C. `COc1ccc(C)cc1NC(=O)Nc1ccc(N2CCN(C(N)=O)CC2)cc1` [Example 51, 4-{4-[3-(2-methoxy-5-methyl-phenyl)-ureido]-phenyl}-piperazine-1-carboxylic acid amide] displayed a melting point of 136 °C. For `COc1ccc(C)cc1NC(=O)Nc1ccc(N2CCN(C(=O)Nc3ccccc3F)CC2)cc1` [Example 52, 4-{4-[3-(2-methoxy-5-methyl-phenyl)-ureido]-phenyl}-piperazine-1-carboxylic acid (2-fluoro-phenyl)-amide] the value was 200 to 201 °C.

On to `COc1ccc(C)cc1NC(=O)Nc1ccc(N2CCN(C(=O)Nc3c(F)cccc3F)CC2)cc1` [Example 55, 4-{4-[3-(2-methoxy-5-methyl-phenyl)-ureido]-phenyl}-piperazine-1-carboxylic acid (2,6-difluoro-phenyl)-amide], for which the melting point was found to be 224 °C. Regarding `COc1ccc(C)cc1NC(=O)Nc1ccc(N2CCN(C(=O)Nc3ccccc3Cl)CC2)cc1` [Example 56, 4-{4-[3-(2-methoxy-5-methyl-phenyl)-ureido]-phenyl}-piperazine-1-carboxylic acid (2-chloro-phenyl)-amide], the melting point was > 240 °C (dec.). For `CCc1cccc(C)c1NC(=O)N1CCN(c2ccc(NC(=O)Nc3cc(C)ccc3OC)cc2)CC1` [Example 63, 4-{4-[3-(2-methoxy-5-methyl-phenyl)-ureido]-phenyl}-piperazine-1-carboxylic acid (2-ethyl-6-methyl-phenyl)-amide] the value was 207 to 209 °C; for `COc1ccc(Cl)cc1NC(=O)Nc1ccc(N2CCN(C(=O)Nc3ccccc3F)CC2)cc1` [Example 67, 4-{4-[3-(5-chloro-2-methoxy-phenyl)-ureido]-phenyl}-piperazine-1-carboxylic acid (2-fluoro-phenyl)-amide], 218 to 220 °C. For `COc1ccc(Cl)cc1NC(=O)Nc1ccc(N2CCN(C(=O)Nc3ccccc3C(F)(F)F)CC2)cc1` [Example 68, 4-{4-[3-(5-chloro-2-methoxy-phenyl)-ureido]-phenyl}-piperazine-1-carboxylic acid (2-trifluoromethyl-phenyl)-amide] the value was 213 to 214 °C; for `COc1ccc(Cl)cc1NC(=O)Nc1ccc(N2CCN(C(=O)Nc3ccccc3C)CC2)cc1` [Example 69, 4-{4-[3-(5-chloro-2-methoxy-phenyl)-ureido]-phenyl}-piperazine-1-carboxylic acid o-tolylamide], 230 to 232 °C; for `COc1ccc(C)cc1NC(=O)Nc1ccc(N2CCN(C(=O)Nc3ccc(Br)cc3C)CC2)cc1` [Example 70, 4-{4-[3-(2-methoxy-5-methyl-phenyl)-ureido]-phenyl}-piperazine-1-carboxylic acid (4-bromo-2-methyl-phenyl)-amide], 191 to 193 °C.

Take `COc1ccc(C)cc1NC(=O)Nc1ccc(N2CCN(C(=O)Nc3ccc(C)cc3C)CC2)cc1` [Example 71, 4-{4-[3-(2-methoxy-5-methyl-phenyl)-ureido]-phenyl}-piperazine-1-carboxylic acid (2,4-dimethyl-phenyl)-amide]: the melting point lay within 196 to 199 °C. For `COc1ccc(C)cc1NC(=O)Nc1ccc(N2CCN(C(=O)Nc3ccc(F)cc3F)CC2)cc1` [Example 72, 4-{4-[3-(2-methoxy-5-methyl-phenyl)-ureido]-phenyl)-piperazine-1-carboxylic acid (2,4-difluoro-phenyl)-amide] the value was 201 to 203 °C; for `COc1ccc(C)cc1NC(=O)Nc1ccc(N2CCN(C(=O)Nc3ccc(Cl)cc3C)CC2)cc1` [Example 74, 4-{4-[3-(2-methoxy-5-methyl-phenyl)-ureido]-phenyl}-piperazine-1-carboxylic acid (4-chloro-2-methyl-phenyl)-amide], 199 to 201 °C; for `COc1ccc(C)cc1NC(=O)Nc1ccc(N2CCN(C(=O)Nc3cccc(C)c3C)CC2)cc1` [Example 108, 4-{4-[3-(2-methoxy-5-methyl-phenyl)-ureido]-phenyl}-piperazine-1-carboxylic acid (2,3-dimethyl-phenyl)-amide], 217 to 219 °C.

Compound `COc1ccc(C)cc1NC(=O)Nc1ccc(N2CCN(C(=O)Nc3cccc(Cl)c3C)CC2)cc1` [Example 136, 4-{4-[3-(2-methoxy-5-methyl-phenyl)-ureido]-phenyl}-piperazine-1-carboxylic acid (3-chloro-2-methyl-phenyl)-amide] came in with a melting point of 228 to 230 °C. In the case of `COc1ccc(Cl)cc1NC(=O)Nc1ccc(N2CCN(C(=O)Nc3c(C)cccc3OC)CC2)cc1` [Example 182, 4-{4-[3-(5-chloro-2-methoxy-phenyl)-ureido]-phenyl}-piperazine-1-carboxylic acid (2-methoxy-6-methyl-phenyl)-amide] it was 165 to 167 °C; in that of `COc1ccc(C)cc1NC(=O)Nc1ccc(N2CCN(C(=O)C3CC4CCC3C4)CC2)cc1` (stereo not drawn) [Example 189, 1-{4-[4-(bicyclo[2.2.1]heptane-2-carbonyl)-piperazin-1-yl]-phenyl}-3-(2-methoxy-5-methyl-phenyl)-urea], 126 to 128 °C. Consider `COc1ccc(C)cc1NC(=O)Nc1ccc(N2CCN(C(=O)C3CCCCC3C)CC2)cc1` (stereo not drawn) [Example 190, 1-(2-methoxy-5-methyl-phenyl)-3-{4-[4-(2-methyl-cyclohexanecarbonyl)-piperazin-1-yl]-phenyl}-urea], for which the melting point lay within 208 to 209 °C. `COc1ccc(C)cc1NC(=O)Nc1ccc(N2CCN(Cc3ccccc3)CC2)cc1` [Example 191, 1-[4-(4-benzyl-piperazin-1-yl)-phenyl]-3-(2-methoxy-5-methyl-phenyl)-urea] yielded a melting point of 184 to 186 °C.

With `COc1ccc(C)cc1NC(=O)Nc1ccc(N2CCN(c3ncccn3)CC2)cc1` [Example 193, 1-(2-methoxy-5-methyl-phenyl)-3-[4-(4-pyrimidin-2-yl-piperazin-1-yl)-phenyl]-urea], the melting point was in the range of 220 to 221 °C. For `COc1ccc(C)cc1NC(=O)Nc1ccc(N2CCN(C(=O)OC(C)(C)C)CC2)cc1C` [Example 194, 4-{4-[3-(2-methoxy-5-methyl-phenyl)-ureido]-3-methyl-phenyl}-piperazine-1-carboxylic acid tert-butyl ester] the value was 169 to 171 °C. In the case of `COc1ccc(C)cc1NC(=O)Nc1ccc(N2CCN(C(=O)OC(C)(C)C)CC2)c(C)c1` [Example 195, 4-{4-[3-(2-methoxy-5-methyl-phenyl)-ureido]-2-methyl-phenyl}-piperazine-1-carboxylic acid tert-butyl ester] it was 103 to 105 °C; in that of `COc1ccc(C)cc1NC(=O)Nc1ccc(N2CCC(C(=O)Nc3c(C)cccc3Cl)CC2)cc1` [Example 196, 1-{4-[3-(2-methoxy-5-methyl-phenyl)-ureido]-phenyl}-piperidine-4-carboxylic acid (2-chloro-6-methyl-phenyl)-amide], > 250 °C (dec.).

Turning to `COc1ccc(C)cc1NC(=O)Nc1ccc2c(c1)C=CN(C(=O)Nc1c(C)cccc1Cl)C2` [Example 202, 6-[3-(2-methoxy-5-methyl-phenyl)-ureido]-3,4-dihydrido-1H-isoquinoline-2-carboxylic acid (2-chloro-6-methyl-phenyl)-amide], the melting point fell in the range of 216 to 218 °C. The compound `COc1ccc(C)cc1NC(=O)Nc1ccc(N2CCC(C(=O)c3ccccc3)CC2)nc1` [Example 205, 1-(4-benzoyl-3,4,5,6-tetrahydro-2H-[1,2′]bipyridinyl-5′-yl)-3-(2-methoxy-5-methyl-phenyl)-urea] had a melting point of 193 to 194 °C. Compound `COc1ccc(C)cc1NC(=O)Nc1ccc(N2CCN(C(=O)C(O)c3ncccc3C)CC2)cc1` (stereo not drawn) [Example 427, 1-(4-{4-[2-hydroxy-2-(3-methyl-pyridin-2-yl)-acetyl]-piperazin-1-yl}-phenyl)-3-(2-methoxy-5-methyl-phenyl)-urea] displayed a melting point of 199 to 200 °C.
